Earlier results on two compounds are cited in patent US20030124075A1, “Use of a composition containing at least one oxidation-sensitive hydrophilic active principle and at least one N-vinylimidazole polymer or copolymer” (L'OREAL, priority 2001, published 2003).

The target of one series is T1, tyrosinase (Homo sapiens, UniProt P14679).
T1 sequence (P14679 19-529): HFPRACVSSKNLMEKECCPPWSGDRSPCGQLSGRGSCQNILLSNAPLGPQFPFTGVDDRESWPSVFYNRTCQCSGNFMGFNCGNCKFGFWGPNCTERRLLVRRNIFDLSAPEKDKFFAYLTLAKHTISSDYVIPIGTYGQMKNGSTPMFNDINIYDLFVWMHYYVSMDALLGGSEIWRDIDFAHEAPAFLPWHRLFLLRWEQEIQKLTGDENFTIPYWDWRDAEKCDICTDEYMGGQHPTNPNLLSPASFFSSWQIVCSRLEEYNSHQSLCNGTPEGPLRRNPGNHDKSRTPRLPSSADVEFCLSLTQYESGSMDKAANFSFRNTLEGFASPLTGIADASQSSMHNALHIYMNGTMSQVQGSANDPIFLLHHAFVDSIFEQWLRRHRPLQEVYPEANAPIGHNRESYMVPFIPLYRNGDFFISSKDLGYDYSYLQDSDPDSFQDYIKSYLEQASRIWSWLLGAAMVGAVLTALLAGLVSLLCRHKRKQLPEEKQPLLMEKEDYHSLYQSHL
The following applies: J. Soc. Cosmet. Chem., 42, 1991.

The next series deals with melanocytes. The conditions noted are these: Pigment. Cell. Res., 13, 2000.
For series [1] the following is noted: J. Am. Acad. Dermatol., 1996, 34, 29-33.

Turning to `O=C1O[C@H]([C@@H](O)CO)C(O)=C1O` [ascorbic acid], at tyrosinase, the “inhibiting effect on tyrosinase” value is “has been demonstrated”.

For the compound `O=C1O[C@H]([C@@H](O)CO)C([O-])=C1OP(=O)([O-])[O-].O=C1O[C@H]([C@@H](O)CO)C([O-])=C1OP(=O)([O-])[O-].[Mg+2].[Mg+2].[Mg+2]` [magnesium ascorbyl phosphate], the dendricity of melanocytes entry in the series on melanocytes is on record as “can reduce the dendricity of melanocytes”. In series [1], the bioavailability result is given as “very low”.
